# Experiments:
# Assay in all cases: KINOMEscan
# Type in all cases: binding
# Conditions in all cases: 2000 nM
# [1] = target: T1, SNARK (Homo sapiens, UniProt Q9H093)
# T1 construct: purchased KINOMEscan (DiscoveRx)
# [2] = target: T2, LIMK1 (Homo sapiens, UniProt P53667)
# T2 construct: purchased KINOMEscan (DiscoveRx) panel service
# [3] = target: T3, EPHA5 (Homo sapiens, UniProt P54756)
# T3 construct: purchased DiscoveRx (KINOMEscan scanMAX panel)
# [4] = target: T4, ALK(L1196M) (Homo sapiens, UniProt Q9UM73, L1196M)
# T4 construct: DNA label (qPCR read-out); purchased KINOMEscan scanMAX panel (DiscoveRx)
# [5] = target: T5, EGFR (Homo sapiens, UniProt P00533)
# T5 construct: purchased DiscoveRx (KINOMEscan scanMAX panel)
# [6] = target: T6, TYK2(JH1domain-catalytic) (Homo sapiens, UniProt P29597)
# T6 construct: JH1domain; DNA label (for qPCR read-out); purchased DiscoveRx (KINOMEscan scanMAX panel)
# [7] = target: T7, ASK2 (Homo sapiens, UniProt O95382)
# T7 construct: DNA label (qPCR read-out); purchased KINOMEscan scanMAX panel (DiscoveRx)
# [8] = target: T8, SgK110 (Homo sapiens, UniProt P0C264)
# T8 construct: purchased DiscoveRx (KINOMEscan scanMAX panel)
# [9] = target: T9, BLK (Homo sapiens, UniProt P51451)
# T9 construct: DNA label (for qPCR read-out); purchased KINOMEscan scanMAX panel (DiscoveRx)
# [10] = target: T10, GRK3 (Homo sapiens, UniProt P35626)
# T10 construct: DNA label (for qPCR read-out); purchased DiscoveRx (KINOMEscan scanMAX panel, contract assay)
# [11] = target: T11, ERK8 (Homo sapiens, UniProt Q8TD08)
# T11 construct: DNA label (qPCR read-out); purchased DiscoveRx (KINOMEscan ScanMAX panel)
# [12] = target: T12, PIM1 (Homo sapiens, UniProt P11309)
# T12 construct: DNA label (qPCR read-out); purchased KINOMEscan (DiscoveRx) panel
# [13] = target: T13, DYRK1A (Homo sapiens, UniProt Q13627)
# T13 construct: DNA label (qPCR read-out); purchased KINOMEscan (DiscoveRx) panel
# [14] = target: T14, JNK3 (Homo sapiens, UniProt P53779)
# T14 construct: DNA label (for qPCR read-out); purchased DiscoveRx (KINOMEscan scanMAX panel)
# [15] = target: T15, CDKL3 (Homo sapiens, UniProt Q8IVW4)
# T15 construct: DNA label (for qPCR read-out); purchased DiscoveRx (KINOMEscan scanMAX service)
# [16] = target: T16, SIK (Homo sapiens, UniProt P57059)
# T16 construct: purchased KINOMEscan (DiscoveRx)
# [17] = target: T17, GSK3A (Homo sapiens, UniProt P49840)
# T17 construct: DNA label (qPCR read-out); purchased DiscoverX (assay service)
# [18] = target: T18, PCTK3 (Homo sapiens, UniProt Q07002)
# T18 construct: DNA label (for qPCR read-out); purchased DiscoveRx (KINOMEscan scanMAX service)
# [19] = target: T19, FGFR3 (Homo sapiens, UniProt P22607)
# T19 construct: purchased DiscoveRx (KINOMEscan scanMAX panel)
# [20] = target: T20, CLK1 (Homo sapiens, UniProt P49759)
# T20 construct: DNA label (for qPCR read-out); purchased DiscoveRx (KINOMEscan scanMAX service)
# [21] = target: T21, FAK (Homo sapiens, UniProt Q05397)
# T21 construct: DNA label (qPCR read-out); purchased DiscoveRx (KINOMEscan ScanMAX panel)
# [22] = target: T22, FLT1 (Homo sapiens, UniProt P17948)
# T22 construct: purchased DiscoveRx (KINOMEscan scanMAX panel)
# [23] = target: T23, EIF2AK1 (Homo sapiens, UniProt Q9BQI3)
# T23 construct: purchased DiscoveRx (KINOMEscan scanMAX panel)
# [24] = target: T24, CDC2L1 (Homo sapiens, UniProt P21127)
# T24 construct: DNA label (qPCR read-out); purchased KINOMEscan (ScanMAX panel service)
# [25] = target: T25, CAMK1 (Homo sapiens, UniProt Q14012)
# T25 construct: DNA label (qPCR read-out); purchased KINOMEscan (ScanMAX panel service)
# [26] = target: T26, FES (Homo sapiens, UniProt P07332)
# T26 construct: purchased DiscoveRx (KINOMEscan scanMAX panel)
# [27] = target: T27, MAP3K1 (Homo sapiens, UniProt Q13233)
# T27 construct: DNA label (qPCR read-out); purchased DiscoverX (KINOMEscan service)
# [28] = target: T28, ABL1(F317I)-nonphosphorylated (Homo sapiens, UniProt P00519, F317I)
# T28 construct: DNA label (qPCR read-out); purchased DiscoverX (KINOMEscan service)
# [29] = target: T29, MET(Y1235D) (Homo sapiens, UniProt P08581, Y1235D)
# T29 construct: purchased DiscoveRx (KINOMEscan scanMAX panel, service)
# [30] = target: T30, p38-alpha (Homo sapiens, UniProt Q16539)
# T30 construct: purchased DiscoverX (KINOMEscan service)
# [31] = target: T31, PIK3CA(C420R) (Homo sapiens, UniProt P42336, C420R)
# T31 construct: DNA label; purchased DiscoveRx (KINOMEscan scanMAX panel)
# [32] = target: YSK4 (Homo sapiens, UniProt Q56UN5)
# [33] = target: T32, MEK2 (Homo sapiens, UniProt P36507)
# T32 construct: purchased DiscoveRx (KINOMEscan scanMAX panel, service)
# [34] = target: T33, LATS2 (Homo sapiens, UniProt Q9NRM7)
# T33 construct: purchased KINOMEscan (DiscoveRx) panel service
# [35] = target: T34, PIP5K1A (Homo sapiens, UniProt Q99755)
# T34 construct: DNA label (qPCR read-out); purchased KINOMEscan (DiscoveRx) panel
# T5 sequence (P00533 25-1210): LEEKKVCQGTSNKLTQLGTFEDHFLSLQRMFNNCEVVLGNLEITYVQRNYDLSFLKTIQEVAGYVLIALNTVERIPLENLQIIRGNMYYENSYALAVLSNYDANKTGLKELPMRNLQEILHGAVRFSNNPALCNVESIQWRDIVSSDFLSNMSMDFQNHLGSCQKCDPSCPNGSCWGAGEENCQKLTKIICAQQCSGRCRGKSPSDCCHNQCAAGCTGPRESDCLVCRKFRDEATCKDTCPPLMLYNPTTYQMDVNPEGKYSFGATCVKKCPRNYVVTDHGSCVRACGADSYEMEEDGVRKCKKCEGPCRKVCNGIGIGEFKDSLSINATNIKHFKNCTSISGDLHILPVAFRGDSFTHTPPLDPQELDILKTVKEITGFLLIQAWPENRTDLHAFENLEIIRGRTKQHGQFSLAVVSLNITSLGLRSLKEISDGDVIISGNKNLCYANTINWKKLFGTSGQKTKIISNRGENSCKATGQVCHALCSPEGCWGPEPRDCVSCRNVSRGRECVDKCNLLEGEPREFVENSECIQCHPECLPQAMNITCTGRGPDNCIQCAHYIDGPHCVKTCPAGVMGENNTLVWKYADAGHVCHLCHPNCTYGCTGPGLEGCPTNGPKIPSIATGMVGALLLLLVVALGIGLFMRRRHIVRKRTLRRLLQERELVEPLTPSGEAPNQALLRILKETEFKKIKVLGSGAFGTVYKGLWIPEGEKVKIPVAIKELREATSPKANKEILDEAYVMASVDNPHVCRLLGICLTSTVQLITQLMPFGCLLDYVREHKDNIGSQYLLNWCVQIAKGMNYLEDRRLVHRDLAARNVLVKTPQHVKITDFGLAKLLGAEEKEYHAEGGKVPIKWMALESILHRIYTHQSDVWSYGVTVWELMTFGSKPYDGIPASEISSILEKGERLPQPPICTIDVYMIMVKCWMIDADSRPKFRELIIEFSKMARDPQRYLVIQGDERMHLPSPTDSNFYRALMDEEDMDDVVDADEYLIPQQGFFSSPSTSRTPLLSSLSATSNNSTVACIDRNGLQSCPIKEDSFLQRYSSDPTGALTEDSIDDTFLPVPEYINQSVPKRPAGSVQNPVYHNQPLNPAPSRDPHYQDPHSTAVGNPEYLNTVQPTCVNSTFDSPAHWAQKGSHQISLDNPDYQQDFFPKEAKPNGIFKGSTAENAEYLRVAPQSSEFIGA
# T4 sequence (Q9UM73 19-1620 L1196M): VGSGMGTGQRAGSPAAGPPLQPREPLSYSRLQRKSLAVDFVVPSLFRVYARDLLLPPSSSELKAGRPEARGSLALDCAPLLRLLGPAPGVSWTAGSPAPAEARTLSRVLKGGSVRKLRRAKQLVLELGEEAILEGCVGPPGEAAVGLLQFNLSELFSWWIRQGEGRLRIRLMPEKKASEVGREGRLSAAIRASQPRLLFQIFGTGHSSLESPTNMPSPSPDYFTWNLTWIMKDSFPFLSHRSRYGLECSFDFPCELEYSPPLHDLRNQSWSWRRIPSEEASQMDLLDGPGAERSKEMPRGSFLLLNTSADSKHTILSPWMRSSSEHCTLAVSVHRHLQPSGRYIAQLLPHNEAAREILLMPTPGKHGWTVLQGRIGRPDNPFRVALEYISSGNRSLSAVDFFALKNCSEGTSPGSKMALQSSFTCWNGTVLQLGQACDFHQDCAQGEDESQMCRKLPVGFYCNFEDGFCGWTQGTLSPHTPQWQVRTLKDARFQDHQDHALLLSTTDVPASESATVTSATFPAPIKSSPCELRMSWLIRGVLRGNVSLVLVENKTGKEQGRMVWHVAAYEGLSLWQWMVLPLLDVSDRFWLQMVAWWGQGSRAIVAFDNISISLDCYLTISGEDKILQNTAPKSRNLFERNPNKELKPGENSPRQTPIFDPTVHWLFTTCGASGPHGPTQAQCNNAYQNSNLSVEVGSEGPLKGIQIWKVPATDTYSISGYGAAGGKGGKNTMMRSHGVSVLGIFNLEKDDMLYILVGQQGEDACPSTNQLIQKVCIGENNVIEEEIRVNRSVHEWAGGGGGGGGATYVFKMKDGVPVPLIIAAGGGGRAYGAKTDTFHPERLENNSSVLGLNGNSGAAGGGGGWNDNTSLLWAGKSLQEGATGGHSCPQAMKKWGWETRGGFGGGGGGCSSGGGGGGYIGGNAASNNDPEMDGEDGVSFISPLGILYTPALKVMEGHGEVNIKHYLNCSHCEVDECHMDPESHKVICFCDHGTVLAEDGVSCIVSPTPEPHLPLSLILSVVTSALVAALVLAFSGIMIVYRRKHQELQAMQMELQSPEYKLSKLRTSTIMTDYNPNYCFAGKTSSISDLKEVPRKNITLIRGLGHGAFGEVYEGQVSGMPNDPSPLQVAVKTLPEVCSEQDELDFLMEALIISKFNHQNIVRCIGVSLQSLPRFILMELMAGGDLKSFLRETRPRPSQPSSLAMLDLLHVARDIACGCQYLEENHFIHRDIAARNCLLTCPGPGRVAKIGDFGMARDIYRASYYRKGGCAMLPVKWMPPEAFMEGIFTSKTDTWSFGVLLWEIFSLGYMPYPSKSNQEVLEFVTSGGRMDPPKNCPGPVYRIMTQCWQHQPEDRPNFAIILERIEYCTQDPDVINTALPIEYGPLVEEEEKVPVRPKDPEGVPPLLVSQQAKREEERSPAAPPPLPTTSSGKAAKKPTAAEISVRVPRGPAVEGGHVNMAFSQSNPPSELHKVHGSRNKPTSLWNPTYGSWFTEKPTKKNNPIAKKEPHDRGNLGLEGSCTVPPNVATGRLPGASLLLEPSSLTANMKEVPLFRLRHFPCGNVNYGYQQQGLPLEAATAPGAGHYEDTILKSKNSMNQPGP
# T15 sequence (Q8IVW4 whole entry): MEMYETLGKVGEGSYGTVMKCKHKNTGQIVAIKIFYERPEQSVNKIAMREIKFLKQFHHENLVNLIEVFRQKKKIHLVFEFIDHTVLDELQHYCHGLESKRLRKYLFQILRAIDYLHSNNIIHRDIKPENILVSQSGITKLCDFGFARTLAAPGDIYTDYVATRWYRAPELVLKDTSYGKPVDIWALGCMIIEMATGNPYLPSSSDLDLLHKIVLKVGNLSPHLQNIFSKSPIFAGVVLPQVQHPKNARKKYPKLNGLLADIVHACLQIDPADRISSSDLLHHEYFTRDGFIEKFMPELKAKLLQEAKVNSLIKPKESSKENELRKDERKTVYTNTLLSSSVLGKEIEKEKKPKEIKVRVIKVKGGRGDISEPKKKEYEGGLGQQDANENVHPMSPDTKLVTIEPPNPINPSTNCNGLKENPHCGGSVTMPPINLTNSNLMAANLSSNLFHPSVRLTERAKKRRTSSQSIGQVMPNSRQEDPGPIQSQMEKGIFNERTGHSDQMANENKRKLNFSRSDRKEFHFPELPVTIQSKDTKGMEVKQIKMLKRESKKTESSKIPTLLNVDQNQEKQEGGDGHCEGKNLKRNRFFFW
# T11 sequence (Q8TD08 whole entry): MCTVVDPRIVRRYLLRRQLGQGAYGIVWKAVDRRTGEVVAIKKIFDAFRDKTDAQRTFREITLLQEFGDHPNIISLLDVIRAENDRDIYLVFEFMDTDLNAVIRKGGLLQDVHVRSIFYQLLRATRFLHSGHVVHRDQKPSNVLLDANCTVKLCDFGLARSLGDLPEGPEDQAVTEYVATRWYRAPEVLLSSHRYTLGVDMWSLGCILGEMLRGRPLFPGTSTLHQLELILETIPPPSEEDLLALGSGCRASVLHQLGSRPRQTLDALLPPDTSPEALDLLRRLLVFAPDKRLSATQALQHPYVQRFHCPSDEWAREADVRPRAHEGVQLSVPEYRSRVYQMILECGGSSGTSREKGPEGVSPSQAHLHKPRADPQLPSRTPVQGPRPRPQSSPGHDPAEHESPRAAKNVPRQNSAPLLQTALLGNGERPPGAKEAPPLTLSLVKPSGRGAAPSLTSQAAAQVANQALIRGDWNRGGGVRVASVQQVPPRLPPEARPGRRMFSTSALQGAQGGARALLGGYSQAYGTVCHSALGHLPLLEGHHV
# T14 sequence (P53779 whole entry): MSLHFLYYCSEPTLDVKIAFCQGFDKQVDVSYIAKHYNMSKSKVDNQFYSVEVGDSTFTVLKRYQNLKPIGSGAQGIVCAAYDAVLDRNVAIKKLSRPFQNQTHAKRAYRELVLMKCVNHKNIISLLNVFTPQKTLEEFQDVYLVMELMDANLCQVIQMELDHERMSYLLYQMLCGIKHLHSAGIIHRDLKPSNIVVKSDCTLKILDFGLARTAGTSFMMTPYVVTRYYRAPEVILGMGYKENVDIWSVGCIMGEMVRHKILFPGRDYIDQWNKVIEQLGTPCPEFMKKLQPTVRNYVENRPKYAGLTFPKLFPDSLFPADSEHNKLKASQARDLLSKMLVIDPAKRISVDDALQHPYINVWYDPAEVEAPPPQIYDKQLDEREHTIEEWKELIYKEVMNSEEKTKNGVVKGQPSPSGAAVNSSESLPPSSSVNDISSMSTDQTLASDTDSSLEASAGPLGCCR
# T25 sequence (Q14012 whole entry): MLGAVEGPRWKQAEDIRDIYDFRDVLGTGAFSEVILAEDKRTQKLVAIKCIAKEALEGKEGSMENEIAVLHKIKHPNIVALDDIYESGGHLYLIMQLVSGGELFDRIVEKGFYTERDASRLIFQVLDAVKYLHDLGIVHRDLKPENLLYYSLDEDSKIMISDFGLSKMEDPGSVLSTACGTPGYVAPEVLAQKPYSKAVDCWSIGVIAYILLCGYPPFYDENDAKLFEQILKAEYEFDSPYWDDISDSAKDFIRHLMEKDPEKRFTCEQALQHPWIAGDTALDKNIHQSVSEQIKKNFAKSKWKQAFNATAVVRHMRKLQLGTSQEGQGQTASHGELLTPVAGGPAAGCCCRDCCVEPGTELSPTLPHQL
# T6 sequence (P29597 897-1176 limits assumed): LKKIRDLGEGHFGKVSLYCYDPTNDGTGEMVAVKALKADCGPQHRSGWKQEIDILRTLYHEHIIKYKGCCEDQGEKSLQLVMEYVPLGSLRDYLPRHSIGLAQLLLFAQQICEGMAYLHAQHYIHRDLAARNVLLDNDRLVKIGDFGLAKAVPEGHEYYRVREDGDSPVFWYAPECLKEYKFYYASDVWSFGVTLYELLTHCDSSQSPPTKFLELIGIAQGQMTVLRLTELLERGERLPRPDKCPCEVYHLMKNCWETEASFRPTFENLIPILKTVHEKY
Compound,% Ctrl [1] [% Ctrl],% Ctrl [2] [% Ctrl],% Ctrl [3] [% Ctrl],% Ctrl [4] [% Ctrl],% Ctrl [5] [% Ctrl],% Ctrl [6] [% Ctrl],% Ctrl [7] [% Ctrl],% Ctrl [8] [% Ctrl],% Ctrl [9] [% Ctrl],% Ctrl [10] [% Ctrl],% Ctrl [11] [% Ctrl],% Ctrl [12] [% Ctrl],% Ctrl [13] [% Ctrl],% Ctrl [14] [% Ctrl],% Ctrl [15] [% Ctrl],% Ctrl [16] [% Ctrl],% Ctrl [17] [% Ctrl],% Ctrl [18] [% Ctrl],% Ctrl [19] [% Ctrl],% Ctrl [20] [% Ctrl],other results
"CN(C)C(=O)c1ccc(N2CCCN(c3ccnc4sc(C(N)=O)c(N)c34)CC2)cc1 [15u, 3-amino-4-(4-(4-(dimethylcarbamoyl)phenyl)-1,4-diazepan-1-yl)thieno[2,3-b]pyridine-2-carboxamide]",100,100,89,96,100,95,90,95,100,99,98,88,50,91,100,84,31,100,98,88,% Ctrl [21]: 100 % Ctrl; % Ctrl [22]: 100 % Ctrl; % Ctrl [23]: 93 % Ctrl; % Ctrl [24]: 63 % Ctrl; % Ctrl [25]: 83 % Ctrl; % Ctrl [26]: 100 % Ctrl; % Ctrl [27]: 84 % Ctrl; % Ctrl [28]: 100 % Ctrl; % Ctrl [29]: 100 % Ctrl; % Ctrl [30]: 93 % Ctrl; % Ctrl [31]: 100 % Ctrl; % Ctrl [32]: 74 % Ctrl; % Ctrl [33]: 88 % Ctrl; % Ctrl [34]: 94 % Ctrl; % Ctrl [35]: 100 % Ctrl
"[2H]C([2H])([2H])N(C(=O)c1ccc(N2CCCN(c3ccnc4sc(C(N)=O)c(N)c34)CC2)cc1)C([2H])([2H])[2H] [15u_D6, 3-amino-4-(4-(4-(bis(methyl-d3)carbamoyl)phenyl)-1,4-diazepan-1-yl)thieno[2,3-b]pyridine-2-carboxamide]",78,100,96,92,87,82,88,100,92,87,99,100,22,44,100,79,34,100,99,68,% Ctrl [21]: 96 % Ctrl; % Ctrl [22]: 100 % Ctrl; % Ctrl [23]: 78 % Ctrl; % Ctrl [24]: 100 % Ctrl; % Ctrl [25]: 95 % Ctrl; % Ctrl [26]: 100 % Ctrl; % Ctrl [27]: 90 % Ctrl; % Ctrl [28]: 93 % Ctrl; % Ctrl [29]: 100 % Ctrl; % Ctrl [30]: 99 % Ctrl; % Ctrl [31]: 86 % Ctrl; % Ctrl [32]: 53 % Ctrl; % Ctrl [33]: 82 % Ctrl; % Ctrl [34]: 31 % Ctrl; % Ctrl [35]: 100 % Ctrl

# Reference: patent US11572369B2, “Bicyclic pyridine compositions and methods of using the same for cancer therapy” (UNIVERSITY OF SOUTH CAROLINA, priority 2019, dated 2023)
